# Where two headings read alike, the source gives them in different places.
# Assays:
# Escherichia coli biofilm = test: Activity against biofilm, E. coli; type: cell-based; conditions: 67-150 μM peptide, 3 hr treatment
# Method: Selected analogues were tested with each (13A). Escherichia coli biofilm, (13B). Staphylococcus aureus biofilm, and (13C) Pseudomonas aeruginosa biofilm.
# However, most of the LDKA analogues fail to treat S. aureus and P. aeruginosa biofilms. Only K7H and 7F3 are capable to reduce S. aureus biofilms by ˜50% with 100 μM peptide concentration, and none of the analogues work against P. aeruginosa biofilms (FIGS. 13a-13c).
# [1] = Membrane selectivity from high-throughput dye leakage screen; type: biochemical; conditions: PC = POPC, PG = POPG
# Excerpt: (§1) This detects and quantifies the release of a small fluorescent dye (ANTS/DPX; MW=˜400 Da) encapsulated in LUVs after addition of library peptides. Neutral POPC LUVs serve as a simple model for mammalian membranes, while charged POPG LUVs mimic bacterial membranes enriched in anionic lipids.
# [2] = 3-kDa dextran macromolecule release assay, POPC; type: biochemical; conditions: P:L = 1:1000, pH 7 phosphate buffer
# Method: Several different size dextrans were prepared and labelled with both TAMRA and biotin. Conjugated dextran was entrapped in POPC LUVs as described above. External dextran was removed by incubation with immobilized streptavidin. Streptavidin labelled with an Alexa-488 fluorophore was added during the leakage experiment with the peptide as previous described.^5 The sample was then incubated for 3 hr before measuring Alexa-488 fluorescence. A control without added peptide served as the 0% leakage signal and addition of 0.05% vol. Triton X-100 was used to determine 100% leakage.
# [3] = Circular dichroism secondary structure (Dichroweb), with POPC; type: physicochemical
# Method: (§2) Dichroweb software analyzes the secondary structure of LDKA peptides from circular dichroism spectroscope. The table presents the percentage of each helix and strand structure at different temperature. The data are analyzed using CONTIN-LL method and Reference Set 4 (Optimised for 190-240 nm).
# (§3) Peptide solutions (peptide concentration is 50 μM) were titrated with POPC and POPG LUVs (50, 100, 250, 500, 1000 μM) and the corresponding changes CD spectra collected. Analysis of these spectra using CD tools and Dichroweb provides an ensemble average of the changes in secondary structure in the presence of POPC and POPG LUVs (dichroweb.cryst.bbk.ac.uk), which gives a direct measure of the binding free energies for each peptide.
# [4] = test system: ciprofloxacin-resistant E. coli
# Method: “N.D.” means “not determined”.
# Ceftazidime is active on the bacteria's cell wall and interferes with bacterial cell wall formation.^38,39 Ciprofloxacin is able to inhibit DNA gyrase, type II topoisomerase, and topoisomerase IV to separate bacterial DNA and inhibits cell division.^40 Streptomycin and gentamicin are antibiotics that can interrupt and inhibit protein synthesis.^41,42 E. coli strain ATCC 25922 cultures were grown in the presence of each of these antibiotics at elevated concentration for 10 generations.
# [5] = ANTS/DPX leakage assay, POPG; type: biochemical; conditions: P:L = 1:1000, pH 7 phosphate buffer
# Method: (§4) 5 mM ANTS and 12.5 mM DPX were entrapped in 0.1 μm diameter extruded vesicles with lipids. Gel filtration chromatography of Sephadex G-100 (GE Healthcare Life Sciences Inc.) was used to remove external free ANTS/DPX from LUVs with entrapped contents. […] Leakage was measured after 3 hr incubation. 10% Triton was used as the positive control to measure the maximum leakage of the vesicle. Fluorescence emission spectra were recorded using excitation wavelength (Ex: 350 nm) and emission wavelength (Em: 510 nm) for ANTS/DPX using Synergy H1 Hybrid Multi-Mode Reader.
# as §1
# P. aeruginosa = test: Bacterial minimum inhibitory concentration (MIC), P. aeruginosa; type: cell-based, Pseudomonas aeruginosa; conditions: 75 μM maximum tested; NDA = not determinable
# Method: (§5) Escherichia colt strain ATCC 25922, Staphylococcus aureus strain ATCC 25923, and Pseudomonas aeruginosa strain ATCC PAO1 were used in this study. Overnight cultures were subcultured to log phase (OD600=0.3-0.6) after which cell counts were determined by measuring the OD600 (OD600 1.0=1.5×10^8 CFU/mL for S. aureus, 5×10^8 CFU/mL for E. colt, and 2.04×10^8 CFU/mL for P. aeruginosa). Bacteria in minimal media mere added to serially diluted peptides and incubated for 3 hr, followed by the addition of full growth media. After overnight incubation, the optical density of the wells was recorded on a plate reader to determine whether they were sterilized (OD<0.08) or were at stationary phase growth (OD600>0.5). Intermediate values, which were rare, were considered positive for growth. Average minimum sterilizing concentrations were calculated from the lowest peptide concentration that sterilized the bacteria in each serial dilution. The samples were done in sextuplet.
# [6] = test system: methicillin-resistant Staphylococcus aureus (MRSA); type: cell-based; conditions: 75 μM maximum tested; NDA = not determinable
# Hemolysis assay = type: cell-based, human; conditions: human
# Method: Fresh human red blood cells were obtained from Interstate Blood Bank, Inc., and thoroughly washed in PBS until the supernatant was clear. hRBC concentration was determined using a standard hemocytometer. In hemolysis assays serial dilutions of peptide were prepared, followed by the addition of 2×10^8 hRBC/mL. After incubation for 1 hr at 37° C. the cells were centrifuged and the released hemoglobin was measured by optical absorbance of the heme group (410 nm). Negative control was buffer only (0% lysis), and the positive control was 20 μM melittin and distilled water (100% lysis). The samples were done in triplicate.
# [7] = Circular dichroism secondary structure (Dichroweb), with POPG; type: physicochemical
# Method: as §2, §3
# [8] = ANTS/DPX leakage assay, POPC; type: biochemical; conditions: P:L = 1:1000, pH 7 phosphate buffer
# Method: as §4, §1
# [9] = Pore-size characterization by 3-kDa dextran release; type: biochemical; conditions: ‡Large pore for PG only
# Excerpt: Eight LDKA peptides with different lipid selectivity and pore sizes were selected from the high-throughput screen and sequenced. […] The most common mutation is L to A, occurred 13 times and in 7 out of the 8 peptides, followed by A to L, which occurred 6 times in 5 peptides, L to D which occurred 3 times in 3 peptides, and L to P that occurred once. Lysine (K) is not favorable to be shown at the position 6, 8, 10, 12, and 13, which is the non-polar face of the helical structure. […] More specifically, the analogs only induce leakage from anionic POPG vesicles have 4-5 leucines, which is less than the analogs that can porate both POPC and POPG vesicles and have 6-7 leucines in their sequences.
# [10] = Circular dichroism secondary structure (Dichroweb), peptide only; type: physicochemical; conditions: 20 °C
# Method: as §2, §3
# [11] = 3-kDa dextran macromolecule release assay, POPG; type: biochemical; conditions: P:L = 1:1000, pH 7 phosphate buffer
# [12] = provided by the distributor, GenScript; cited from earlier work
# S. aureus = test: Bacterial minimum inhibitory concentration (MIC), S. aureus; type: cell-based, Staphylococcus aureus; conditions: 75 μM maximum tested; NDA = not determinable
# Method: as §5
Substance,Elimination of E. coli biofilm (Escherichia coli biofilm) [%],Membrane selectivity (POPC vs POPG vesicles) [1],"Peptide-POPC, Helix ([3]; 20 °C) [%]","Peptide-POPC, Strand ([3]; 20 °C) [%]","Peptide-POPC, Helix ([3]; 45 °C) [%]","Peptide-POPC, Strand ([3]; 45 °C) [%]","Peptide-POPC, Helix ([3]; 70 °C) [%]","Peptide-POPC, Strand ([3]; 70 °C) [%]","Peptide-POPC, Helix ([3]; 95 °C) [%]","Peptide-POPC, Strand ([3]; 95 °C) [%]","ANTS/DPX release, POPG [5] [%]","Minimum Inhibitory Concentration, P. aeruginosa (P. aeruginosa)","Minimum Inhibitory Concentration, MRSA [6]","Peptide-POPG, Helix ([7]; 20 °C) [%]","Peptide-POPG, Strand ([7]; 20 °C) [%]","Peptide-POPG, Helix ([7]; 45 °C) [%]","Peptide-POPG, Strand ([7]; 45 °C) [%]","Peptide-POPG, Helix ([7]; 70 °C) [%]","Peptide-POPG, Strand ([7]; 70 °C) [%]","Peptide-POPG, Helix ([7]; 95 °C) [%]",further results
H-GLDDLAKLLLKLAGW-NH2 [Peptide 25B2],~50,Non-selective,80,3,90,1,81,1,61,6,99,NDA,NDA,98,0,98,0,93,0,87,"3-kDa Dextran release, POPC [2]: -2%; MIC, ciprofloxacin-resistant E. coli [4]: completely fail; HC50 at 1 hr (Hemolysis assay): 35.5 µM; Peptide-POPG, Strand ([7]; 95 °C): 1%; ANTS/DPX release, POPC [8]: 98%; Pore size [9]: Large‡; Peptide-only, Helix [10]: 67%; Peptide-only, Strand [10]: 3%; 3-kDa Dextran release, POPG [11]: 100%; Solubility, DMSO [12]: 15 mg/mL; Solubility, DPBS pH 7.1 [12]: <0.1 mg/mL; Solubility, Ultrapure Water [12]: 10 mg/mL"
H-GLLDAAKLLAKAAGW-NH2 [Peptide 24F1],~50,PG > PC,32,16,32,16,27,17,24,22,100,66 µM,NDA,91,0,88,1,77,1,66,"Minimum Inhibitory Concentration, S. aureus (S. aureus): NDA; Peptide-POPG, Strand ([7]; 95 °C): 2%; ANTS/DPX release, POPC [8]: 15%; Pore size [9]: Large; Peptide-only, Strand [10]: 14%; 3-kDa Dextran release, POPG [11]: 69%; Solubility, DMSO [12]: 15 mg/mL; Solubility, DPBS pH 7.1 [12]: 5 mg/mL; Solubility, Ultrapure Water [12]: 10 mg/mL"
H-GLDDLLKALLKAAGW-NH2 [Peptide 4H9],~50,PC > PG,82,0,77,0,66,4,47,11,43,NDA,NDA,93,0,91,0,83,0,73,"3-kDa Dextran release, POPC [2]: -4%; MIC, ciprofloxacin-resistant E. coli [4]: completely fail; HC50 at 1 hr (Hemolysis assay; peptide concentration lysing 50% of red blood cells, estimated using polynomial regression, read-out: Hemolysis Assay LC50): 56.6 µM; Peptide-POPG, Strand ([7]; 95 °C): 1%; ANTS/DPX release, POPC [8]: 110%; Pore size [9]: Small; Peptide-only, Helix [10]: 63%; Peptide-only, Strand [10]: 2%; Solubility, DMSO [12]: 15 mg/mL; Solubility, DPBS pH 7.1 [12]: 10 mg/mL; Solubility, Ultrapure Water [12]: 5 mg/mL"

# Reference: patent US11059855B2, “Antimicrobial peptides and methods of making and using same” (priority 2017, dated 2021)
